Here are results for eleven compounds from patent publication US20240245691A1 (Sitryx Therapeutics Limited, priority 2021, published 2024).

One may read the IC50 as the midpoint of a concentration-inhibition curve. By half-life is commonly meant the time in which the quantity being followed falls by half. A word on the Emax: it is the size of the effect at its maximum, as opposed to the concentration needed. The EC50 is the concentration giving half of the maximal effect.

One data set concerns IL-1β. Description: THP-1 AlphaLISA IL-1β cytokine assay (differentiated THP-1 cells). The class given is cell-based. As to conditions: Homo sapiens, THP-1, differentiated THP-1 cells, LPS 24 hr then Nigericin 1 hour; read-out: IL-1β (IC50). As for the experimental part:
(§1) Measuring Inhibitory Effects on IL-1V Cytokine and IL-6 Output from THP-1s
(§2) The cytokine inhibition profiles of compounds of formula (I) were determined in a differentiated THP-1 cell assay. All assays were performed in RPMI-1640 growth medium (Gibco), supplemented with 10% fetal bovine serum (FBS; Gibco), 1% penicillin-streptomycin and 1% sodium pyruvate unless specified otherwise. The IL-1β and IL-6 cytokine inhibition assays were run in a background of differentiated THP-1 cells as described below. All reagents described were from Sigma-Aldrich unless specified otherwise. Compounds were prepared as 10 mM DMSO stocks.
(§3) THP-1 cells were expanded as a suspension up to 80% confluence in appropriate growth medium. Cells were harvested, suspended, and treated with an appropriate concentration of phorbol 12-myristate 13-acetate (PMA) over a 72 hr period (37° C./5% CO2).
(§4) Following 72 hrs of THP-1 cell incubation, cellular medium was removed and replaced with fresh growth media containing 1% of FBS. Working concentrations of compounds were prepared separately in 10% FBS treated growth medium and pre-incubated with the cells for 30 minutes (37° C./5% CO2). Following the 30 minute compound pre-incubation, THP-1s were treated with an appropriate concentration of LPS and the THP-1s were subsequently incubated for a 24 hr period (37° C./5% CO2). An appropriate final concentration of Nigericin was then dispensed into the THP-1 plates and incubated for 1 hour (37° C./5% CO2) before THP-1 supernatants were harvested and collected in separate polypropylene 96-well holding plates.
(§5) Reagents from each of the IL-1β and IL-6 commercial kits (Perkin Elmer) were prepared and run according to the manufacturer's instructions. Subsequently, fluorescence signal detection in a microplate reader was measured (EnVision® Multilabel Reader, Perkin Elmer).
(§6) Percentage inhibition was calculated per cytokine by normalising the sample data to the high and low controls used within each plate (+/−LPS respectively).
(§7) Dimethyl itaconate and 4-octyl itaconate were included as comparator compounds.
On the technique in general: In Alpha technology, singlet oxygen from a donor bead excites a nearby acceptor bead.

Another data set deals with IL-6. Description: THP-1 AlphaLISA IL-6 cytokine assay (differentiated THP-1 cells). The class given is cell-based. The conditions noted are these: LPS 24 hr then Nigericin 1 hour, read-out: IL-6 (IC50). As for the experimental part:
as §1, §2, §3, §4, §5, §6, §7

A short description of data set [1]: Hepatocyte stability assay, human. It is filed as in vitro ADME. As to conditions: human, hepatocytes, T½. An excerpt:
(§8) Defrosted cryo-preserved hepatocytes (viability>70%) were used to determine the metabolic stability of a compound via calculation of intrinsic clearance (CIint; a measure of the removal of a compound from the liver in the absence of blood flow and cell binding). Clearance data are particularly important for in vitro work as they can be used in combination with in vivo data to predict the half-life and oral bioavailability of a drug.
(§9) The metabolic stability in hepatocytes assay involved a time-dependent reaction using both positive and negative controls. The cells must be pre-incubated at 37° C. then spiked with test compound (and positive control); samples taken at pre-determined time intervals were analysed to monitor the change in concentration of the initial drug compound over 60 minutes. A buffer incubation reaction (with no hepatocytes present) acted as a negative control and two cocktail solutions, containing compounds with known high and low clearance values (verapamil/7-hydroxycoumarin and propranolol/diltiazem), acted as positive controls. • 1. The assay was run with a cell concentration of 0.5×10^6 cells/mL in Leibovitz buffer. • 2. All compounds and controls were run in duplicate. • 3. Compound concentration was 10 μM. • 4. All compounds and controls were incubated with both cells and buffer to show turnover is due to hepatic metabolism. • 5. All wells on the incubation plate had 326.7 μL of either cells or buffer added. • 6. Prior to assay, cell and buffer-only incubation plates were preincubated for 10 mins at 37° C. • 7. The assay was initiated by adding compounds, 3.3 μL of 1 mM in 10% DMSO-90% Buffer; final DMSO concentration is 0.1%. • 8. Samples were taken at regular timepoints (0, 5, 10, 20, 40, 60 min) until 60 mins. • 9. Sample volume was 40 μL and added to 160 μL of crash solvent (acetonitrile with internal standard) and stored on ice. • 10. At the end of the assay, the crash plates were centrifuged at 3500 rpm for 20 mins at 4° C. • 11. 80 μL of clear supernatant was removed and mixed with 80 μL of deionised water before being analysed by LC-MS/MS.
(§10) Raw LC-MS/MS data were exported to, and analysed in, Microsoft Excel for determination of intrinsic clearance. The percentage remaining of a compound was monitored using the peak area of the initial concentration as 100%. Intrinsic clearance and half-life values were calculated using a graph of the natural log of percentage remaining versus the time of reaction in minutes.
(§11) 4-Octyl itaconate was included as a comparator compound.

Data set [2] has as its system cryo-preserved hepatocytes. Nature of the data set: Hepatocyte stability assay, human. The class given is in vitro ADME. As to conditions: human, hepatocytes.
Excerpt: as §8, §9, §10, §11

Data set [3] can be described thus: Hepatocyte stability assay, mouse. As to conditions: mouse, hepatocytes, T½. It is filed as in vitro ADME.
Excerpt: as §8, §9, §10, §11

The subject of data set [4] is cryo-preserved hepatocytes. Nature of the data set: Hepatocyte stability assay, mouse. As to conditions: mouse, hepatocytes. The class given is in vitro ADME.
Excerpt: as §8, §9, §10, §11

The subject of data set [5] is NRF2 (nuclear factor erythroid 2-related factor 2). Description: NRF2 +/-GSH activation assay (DiscoverX PathHunter NRF2 translocation kit, U2OS cells). The class given is cell-based. The conditions noted are these: Homo sapiens; for Emax: U2OS, normalised to dimethyl fumarate high control; for EC50: U2OS PathHunter cells, 6 hours.
Setting [6] is: +GSH, read-out: NRF2 activation Emax, +GSH.
Where [7] appears, read: −GSH, read-out: NRF2 activation Emax, −GSH.
Where [8] appears, read: +GSH, read-out: NRF2 activation EC50, +GSH.
Setting [9] is: −GSH, read-out: NRF2 activation EC50, −GSH.
The mark [10] stands for this setting: Homo sapiens, THP-1, differentiated THP-1 cells.

Where two headings read alike, the source gives them in different places.

As for `C=C(C(=O)O)C(C)C(=O)N[C@@H](C)c1ccc(C(F)(F)F)cc1` (single isomer, unassigned; isomer 1) [Example 54], the values for the IC50 in the data set on IL-1β and in the data set on IL-6 (differentiated THP-1 cells) were 31 µM and > 100 µM, respectively. For the same compound, the half-life at 10 μM in data set [1] was > 7.67 h; in data set [3] it was 6.67 h. Also, the values for the Clint in data set [2] and in data set [4] were <3 μL min^−1 10^−6 cells and 4 μL min^−1 10^−6 cells, respectively.

`C=C(CC(=O)NCc1ccc(Cl)cc1)C(=O)OC1CCN(S(C)(=O)=O)CC1` [Example 1, 1-(methylsulfonyl)piperidin-4-yl 4-((4-chlorobenzyl)amino)-2-methylene-4-oxobutanoate]: in the data set on IL-1β, the IC50 worked out at 12.3 µM. The maximal response (Emax) amounted to 19% in data set [5] (setting [6]) and 63% in data set [5] (setting [7]). Besides, the EC50 in data set [5] (setting [8]) is > 100 µM; in data set [5] (setting [9]), 22.3 µM. Also, the half-life at 10 μM turned out to be 1.95 h in data set [1], 0.783 h in data set [1] (data from repeated experiments), 1.63 h in data set [3] and 0.183 h in data set [3] (data from repeated experiments). Also, the Clint in data set [2] is 12 μL min^−1 10^−6 cells; in data set [4] it was 31 μL min^−1 10^−6 cells. For the same compound, the “Clint, data from repeated experiments” value in data set [2] is given as 31ª μL min^−1 10^−6 cells; in data set [4] it was 133 μL min^−1 10^−6 cells.

Consider `C=C(CC(=O)NC1CCCCCCC1)C(=O)OC1CCN(S(C)(=O)=O)CC1` [Example 2, 1-(methylsulfonyl)piperidin-4-yl 4-(cyclooctylamino)-2-methylene-4-oxobutanoate], for which the IC50 with IL-1β is 8.5 µM. Further, the Emax is 90% in data set [5] (setting [6]) and 127% in data set [5] (setting [7]). The values for the EC50 in data set [5] (setting [8]) and in data set [5] (setting [9]) were 41.9 µM and 24.9 µM, respectively. The half-life at 10 μM was 2 h in data set [1], 1.28 h in data set [1] (data from repeated experiments), 0.983 h in data set [3] and 0.15 h in data set [3] (data from repeated experiments). The values for the Clint in data set [2] and in data set [4] were 14 μL min^−1 10^−6 cells and 119 μL min^−1 10^−6 cells, respectively. In addition, the “Clint, data from repeated experiments” value in data set [2] is listed as 21ª μL min^−1 10^−6 cells; in data set [4], 156ª μL min^−1 10^−6 cells.

As for `C=C(CC(=O)NC(c1ccc(C(F)(F)F)cc1)C(F)(F)F)C(=O)O` (stereo not shown) [Example 7, 2-methylene-4-oxo-4-((2,2,2-trifluoro-1-(4-(trifluoromethyl)phenyl)ethyl)amino)butanoic acid], the IC50 in the data set on IL-1β was 8.2 µM; in the data set on IL-6 (setting [10]) it was > 100 µM. Also, the half-life at 10 μM is > 7.67 h in data set [1] and 1.25 h in data set [3]. Besides, the values for the Clint in data set [2] and in data set [4] were <3 μL min^−1 10^−6 cells and 21 μL min^−1 10^−6 cells, respectively.

In the case of `C=C(CC(=O)NC(c1ccc(C(F)(F)F)cc1)C1CC1)C(=O)O` (stereo not shown) [Example 10, 4-((cyclopropyl(4-(trifluoromethyl)phenyl)methyl)amino)-2-methylene-4-oxobutanoic acid], the IC50 with IL-1β is 16.6 µM; in the data set on IL-6 (setting [10]), > 100 µM. The half-life at 10 μM in data set [1] and in data set [3] was > 7.67 h in each case. For the same compound, the Clint in data set [2] and in data set [4] was <3 μL min^−1 10^−6 cells in each case.

In the case of `C=C(CC(=O)NC1(c2ccc(C(F)(F)F)cc2)CC1)C(=O)O` [Example 11, 2-methylene-4-oxo-4-((1-(4-(trifluoromethyl)phenyl)cyclopropyl)amino)butanoic acid], the IC50 with IL-1β was 8.3 µM; in the data set with IL-6 (setting [10]), > 100 µM. The half-life at 10 μM in data set [1] and in data set [3] was > 7.67 h throughout. Also, the Clint in data set [2] and in data set [4] was <3 μL min^−1 10^−6 cells throughout.

Take `C=C(CC(=O)N[C@@H](C)c1ccc(C(F)(F)F)cc1)C(=O)OCCNS(C)(=O)=O` [Example 25, 2-(methylsulfonamido)ethyl (S)-2-methylene-4-oxo-4-((1-(4-(trifluoromethyl)phenyl)ethyl)amino)butanoate]: in the data set with IL-1β, the IC50 worked out at 4.1 µM. In addition, the half-life at 10 μM in data set [1] was found to be 1.17 h; in data set [3], 0.183 h. Also, the Clint in data set [2] was determined as 21 μL min^−1 10^−6 cells; in data set [4], 153 μL min^−1 10^−6 cells.

As for `C=C(CC(=O)N[C@@H](C)c1ccc(C(F)(F)F)cn1)C(=O)OC1CCN(C)CC1` [Example 32, 1-methylpiperidin-4-yl (S)-2-methylene-4-oxo-4-((1-(5-(trifluoromethyl)pyridin-2-yl)ethyl)amino)butanoate], the IC50 with IL-1β is 8.9 µM. Further, the Emax in data set [5] (setting [6]) worked out at 12%; in data set [5] (setting [7]), 58%. Moreover, the EC50 in data set [5] (setting [8]) was > 100 µM; in data set [5] (setting [9]), 46.2 µM. For the same compound, the half-life at 10 μM amounted to 2.05 h in data set [1] and 0.333 h in data set [3]. Further, the Clint in data set [2] turned out to be 12 μL min^−1 10^−6 cells; in data set [4], 87 μL min^−1 10^−6 cells.

With `CC/C=C(\CC(=O)N[C@@H](C)c1ccc(C(F)(F)F)cc1)C(=O)O` [Example 43, (S,E)-2-(2-oxo-2-((1-(4-(trifluoromethyl)phenyl)ethyl)amino)ethyl)pent-2-enoic acid], in the data set with IL-1β, the IC50 was 2.1 µM. The half-life at 10 μM was > 7.67 h in data set [1] and 2.72 h in data set [3]. In addition, the Clint was <3 μL min^−1 10^−6 cells in data set [2] and 9 μL min^−1 10^−6 cells in data set [4].

Take `CC(C)/C=C(\CC(=O)N[C@@H](C)c1ccc(C(F)(F)F)cc1)C(=O)O` [Example 44, (S,E)-4-methyl-2-(2-oxo-2-((1-(4-(trifluoromethyl)phenyl)ethyl)amino)ethyl)pent-2-enoic acid]: the IC50 with IL-1β was 4.2 µM. The half-life at 10 μM is > 7.67 h in data set [1] and 3.98 h in data set [3]. Further, the Clint in data set [2] was <3 μL min^−1 10^−6 cells; in data set [4] it was 6 μL min^−1 10^−6 cells.

`C[C@H](NC(=O)C/C(=C\CCc1ccccc1)C(=O)O)c1ccc(C(F)(F)F)cc1` [Example 46, (S,E)-2-(2-oxo-2-((1-(4-(trifluoromethyl)phenyl)ethyl)amino)ethyl)-5-phenylpent-2-enoic acid]: in the data set on IL-1β, the 50% inhibitory concentration (IC50) turned out to be 2.5 µM. The figures for the half-life at 10 μM in data set [1] and in data set [3] were 3.35 h and 0.667 h, respectively. Further, the Clint in data set [2] came to 7 μL min^−1 10^−6 cells; in data set [4], 37 μL min^−1 10^−6 cells.
